pIC50: −log10 of the molar value. Like-named read-outs stand apart in the source and are kept apart here.
Assays:
AHR = target: T1, AHR (Homo sapiens, UniProt P35869); experiment: DRE-Luciferase Reporter Assay (HepG2 AhR-Lucia reporter cells); format: cell-based; settings: AHR activating ligand at its EC50, luciferase read-out, read-out: HEPG2 Luc IC50
T1 construct: other cell line with a DRE-luciferase reporter stably transfected; endogenous in cells; host or cells: Human HepG2 liver carcinoma AhR-Lucia reporter cells
T1 sequence (P35869 11-848): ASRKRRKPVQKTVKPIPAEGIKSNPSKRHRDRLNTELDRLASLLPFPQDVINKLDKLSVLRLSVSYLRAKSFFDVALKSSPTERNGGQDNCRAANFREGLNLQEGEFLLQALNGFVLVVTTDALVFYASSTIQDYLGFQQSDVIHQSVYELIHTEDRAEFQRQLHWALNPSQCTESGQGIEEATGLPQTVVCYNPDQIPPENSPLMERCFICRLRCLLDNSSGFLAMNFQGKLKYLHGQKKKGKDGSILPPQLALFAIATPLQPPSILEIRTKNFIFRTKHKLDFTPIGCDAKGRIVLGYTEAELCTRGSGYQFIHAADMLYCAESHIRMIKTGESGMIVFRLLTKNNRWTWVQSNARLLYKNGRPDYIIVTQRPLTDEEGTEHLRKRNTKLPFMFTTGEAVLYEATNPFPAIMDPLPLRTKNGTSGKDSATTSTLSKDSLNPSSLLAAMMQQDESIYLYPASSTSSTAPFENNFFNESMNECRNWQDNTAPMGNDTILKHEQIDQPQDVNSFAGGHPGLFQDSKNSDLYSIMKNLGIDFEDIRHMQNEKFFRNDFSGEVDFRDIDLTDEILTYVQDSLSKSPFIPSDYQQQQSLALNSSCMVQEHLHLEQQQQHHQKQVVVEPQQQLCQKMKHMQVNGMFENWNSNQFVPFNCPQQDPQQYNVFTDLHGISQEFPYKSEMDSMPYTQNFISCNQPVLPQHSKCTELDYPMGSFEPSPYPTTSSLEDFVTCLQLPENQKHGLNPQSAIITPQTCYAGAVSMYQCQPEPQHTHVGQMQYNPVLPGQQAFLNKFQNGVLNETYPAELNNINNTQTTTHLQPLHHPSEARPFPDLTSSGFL
From the text: Example 27: DRE-Luciferase Reporter Assay
AHR binds to Dioxin Responsive Elements (DRE) upstream of genes that it activates. One measure of AHR activity is activation of a reporter gene, such as luciferase, downstream of one or multiple DRE elements. Luciferase activity will reflect activation and inhibition of AHR in the cells expressing his reporter. 20000 Human HepG2 liver carcinoma—AhR-Lucia reporter cells or Human HT29 colon adenocarcinoma—AhR reporter cells or other cell line with a DRE-luciferase reporter stably transfected were plated in Eagle's Minimal Essential Medium, 10% heat-inactivated FBS, 1×non-essential amino acids Pen-Strep (10,000 U/mL) and Normocin (100 ug/mL) in plates (96-well, 384-well or other plates) and incubated overnight at 37° C. in a CO2 incubator and treated with and without AhR antagonists at a log dilution starting at 100 uM.
After 1 hr that cells were plated an AHR activating ligand, such as TCDD, kynurenine, ITE (2-(1H-indole-3-ylcarbonyl)-4-thiazolecarboxylic methyl ester), VAF347, BNF (beta-naphthoflavone), FICZ (6-formylindolo(3,2-b) carbazole) or other AHR ligands at their specific EC50 concentration, were added to the cells with or without AHR antagonist.
Cells were incubated for 24 or 48 hours or another time point and then, supernatant was analyzed for determination of luciferase activity as a read-out of the AHR activation or inhibition. Luciferase was measured with the commercial kit QUANTI-Luc™ assay solution kit from Invivogen following the manufacturer's instructions.
The level of luciferase with only agonist ligand added was the maximum signal while the luciferase with […] was the minimum signal. IC50 values were determined as the concentration which inhibits half of the luciferase activity. “A” indicates an IC50 value less than 100 nM, “B” indicates an IC50 between 100 and 500 nM, “C” indicates an IC50 above 500 nM.

[1] = Solubility Determination Assay (PBS pH 1.6 and pH 7.4); format: physicochemical; settings: PBS buffer, aqueous buffer, kinetic from dmso stock, 2 hours shaking
Method: Example 31: Solubility Determination Assay
The stock solutions of test compounds and control compound progesterone were prepared in DMSO at the concentrations of 10 mM. 15 μL of stock solution (10 mM) of each sample was placed in order into their proper 96-well rack. 485 μL of PBS pH 1.6 and pH 7.4 were added into each vial of the cap-less Solubility Sample plate. The assay was performed in singlet. One stir stick was added to each vial and then the vial was sealed using a molded PTFE/Silicone plug. The solubility sample plates were then transferred to the Eppendorf Thermomixer Comfort plate shaker and shaken at 25° C. at 1100 rpm for 2 hours. After completion of the 2 hours, plugs were removed and the stir sticks were removed using a big magnet. The samples from the Solubility Sample plate were transferred into the filter plate. Using the Vacuum Manifold, all the samples were filtered. An aliquot of 5 μL was taken from the filtrate followed by addition of 495 μL of a mixture of H2O and acetonitrile containing internal standard (1:1). A certain proportion of ultrapure water was used to dilute the diluent according to the peak shape. The dilution factor was changed according to the solubility values and the LC-MS signal response.
From the 10 mM DMSO STD plate, 6 μL was transferred into the remaining empty plate, and then 194 μL of DMSO were added to that plate to have a STD concentration of 300 μM. From the 300 μM DMSO STD plate, 5 μL were transferred into the remaining empty plate, and then 495 μL of a mixture of H2O and acetonitrile containing internal standard (1:1) were added to that plate to have a final STD concentration of 3 μM. A certain proportion of ultrapure water was used to dilute the diluent according to the peak shape. The concentrations of the standard samples were changed according to the LC-MS signal response.
The plate was placed into the well plate autosampler. The samples were evaluated by LC-MS/MS analysis.
All calculations were carried out using Microsoft Excel.
The filtrate was analyzed and quantified against a standard of known concentration using LC coupled with mass spectral peak identification and quantitation. Solubility values of the test compound and control compound were calculated as follows: […]
Any value of the compounds that was not within the specified limits was rejected and the experiment was repeated.
“+++” indicates a solubility value equal to or greater than […] “++” indicates a solubility value between 0.1 and 1 μM and “+” indicates a solubility value less than 0.1 μM.

Row | SMILES | pIC50 (AHR) | solubility at 2 h ([1]; PBS pH 1.6, 25° C., read-out: Aq. Solubility at pH = 1.6) [µM] | solubility at 2 h ([1]; PBS pH 7.4, 25° C., read-out: Aq. Solubility at pH = 7.4) [µM]
1 | Cc1ccccc1-c1cc2ncc(NC(=O)c3ccnn3C)cc2[nH]1 [Product 49, 1-methyl-N-(2-(o-tolyl)-1H-pyrrolo[3,2-b]pyridin-6-yl)-1H-pyrazole-5-carboxamide] | 6.30 to 7.00 | ≥ 1 | ≥ 1
2 | CC(=O)Nc1nc2ccc(-c3ccccc3N(C)C)nc2s1 [Product 23, N-(5-(2-(dimethylamino)phenyl)thiazolo[5,4-b]pyridin-2-yl)acetamide] | < 6.30 |  | 
3 | Cc1cnc(-c2ccc3nc(NC(=O)c4ccnn4C)sc3n2)s1 [Product 30, 1-Methyl-N-(5-(5-methylthiazol-2-yl)thiazolo[5,4-b]pyridin-2-yl)-1H-pyrazole-5-carboxamide] | 6.30 to 7.00 |  | 
4 | CN(C)C(=O)c1cccc(-c2ccc3nc(NC(=O)c4ccnn4C)sc3n2)c1 [Product 17, N-(5-(3-(dimethylcarbamoyl)phenyl)thiazolo[5,4-b]pyridin-2-yl)-1-methyl-1H-pyrazole-5-carboxamide] | < 6.30 |  | 
5 | CN(C)c1ccc(-c2ccc3nc(NC(=O)c4ccnn4C)sc3n2)cc1 [Product 20, N-(5-(4-(dimethylamino)phenyl)thiazolo[5,4-b]pyridin-2-yl)-1-methyl-1H-pyrazole-5-carboxamide] | > 7.00 |  | 
6 | Cc1ncsc1-c1ccc2nc(NC(=O)c3ccnn3C)sc2n1 [Product 31, 1-Methyl-N-(5-(4-methylthiazol-5-yl)thiazolo[5,4-b]pyridin-2-yl)-1H-pyrazole-5-carboxamide] | 6.30 to 7.00 |  | 
7 | Cn1nccc1C(=O)Nc1nc2ccc(-c3cccnc3)nc2s1 [Product 26, 1-Methyl-N-(5-(pyridin-3-yl)thiazolo[5,4-b]pyridin-2-yl)-1H-pyrazole-5-carboxamide] | 6.30 to 7.00 |  | 
8 | CC(C)C(=O)Nc1ccccc1-c1ccc2nc(NC(=O)c3ccnn3C)sc2n1 [Product 34, N-(5-(2-isobutyramidophenyl)thiazolo[5,4-b]pyridin-2-yl)-1-methyl-1H-pyrazole-5-carboxamide] | < 6.30 |  | 
9 | Cn1nccc1C(=O)Nc1nc2ccc(-c3ccccc3C(F)(F)F)nc2s1 [Product 1, 1-methyl-N-(5-(2-(trifluoromethyl)phenyl)thiazolo[5,4-b]pyridin-2-yl)-1H-pyrazole-5-carboxamide] | < 6.30 |  | 
10 | Cn1ncnc1C(=O)Nc1nc2ccc(-c3cc(F)ccc3C(F)F)nc2s1 [Product 11, N-(5-(2-(difluoromethyl)-5-fluorophenyl)thiazolo[5,4-b]pyridin-2-yl)-1-methyl-1H-1,2,4-triazole-5-carboxamide] | < 6.30 |  | 

From US20230234967A1, “Fused Azole Heterocycles as AHR Antagonists” (Senda Biosciences, Inc., priority 2021, published 2023)
